In patent publication US7186731B2, “2-cyanopyrrolidinecarboxamide compound” (Astellas Pharma Inc., priority 2003, dated 2007):
Counter-ions that a name gives are not always drawn.

Test system: not given
Experiment: not given
Conditions: not given

melting point [°C] | SMILES
166 to 167 | CC1(NCC(=O)N2C[C@@H](F)C[C@H]2C#N)CCN(c2cnccn2)CC1 [Example 10-8, (2S,4S)-4-Fluoro-1-({[4-methyl-1-(2-pyrazinyl)-4-piperidinyl]amino}acetyl)-2-pyrrolidinecarbonitrile]

Target: T1, human plasma DPP-IV (Homo sapiens, UniProt P27487)
T1 construct: from tissue; host or cells: human plasma
T1 sequence (P27487 39-766 limits assumed): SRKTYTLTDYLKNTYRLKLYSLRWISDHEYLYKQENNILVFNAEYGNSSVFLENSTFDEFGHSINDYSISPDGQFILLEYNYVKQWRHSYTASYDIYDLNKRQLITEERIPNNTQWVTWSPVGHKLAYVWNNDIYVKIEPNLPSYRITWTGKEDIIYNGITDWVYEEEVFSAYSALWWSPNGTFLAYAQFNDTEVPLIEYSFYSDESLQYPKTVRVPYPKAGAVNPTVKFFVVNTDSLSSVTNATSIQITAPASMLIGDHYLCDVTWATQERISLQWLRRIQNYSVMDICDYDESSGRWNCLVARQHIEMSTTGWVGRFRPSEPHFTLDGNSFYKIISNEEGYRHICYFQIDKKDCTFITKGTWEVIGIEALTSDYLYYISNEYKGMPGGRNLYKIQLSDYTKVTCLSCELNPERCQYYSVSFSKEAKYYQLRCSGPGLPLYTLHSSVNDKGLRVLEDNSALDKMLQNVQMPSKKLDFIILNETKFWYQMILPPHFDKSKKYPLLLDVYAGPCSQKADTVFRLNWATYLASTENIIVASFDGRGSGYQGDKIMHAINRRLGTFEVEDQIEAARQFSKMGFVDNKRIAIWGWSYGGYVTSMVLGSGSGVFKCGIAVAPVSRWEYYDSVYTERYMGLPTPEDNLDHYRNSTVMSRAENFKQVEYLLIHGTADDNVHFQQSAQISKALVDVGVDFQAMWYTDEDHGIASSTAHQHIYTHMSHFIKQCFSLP
Experiment: Inhibition Test of Human Plasma DPP-IV
Type: biochemical
Conditions: substrate H-glycine-proline-AMC, 20 minutes incubation at room temperature, fluorescence
Protocol: Inhibition Test of Human Plasma DPP-IV
Briefly, 20 μL of human plasma were mixed with 20 μL of 80 mM MgCl2 in assay buffer (25 mM HEPES, 140 mM NaCl, 1% RIA-grade BSA, pH7.8), and were incubated in a room temperature for 60 minutes. Then the reaction was initiated by the addition of both 20 μL of test compounds and 20 μL of 0.2 mM substrate (H-glycine-proline-AMC; AMC is 7-amino-4-methylcoumarine), they were dissolved in the assay buffer.
After 20 minutes incubation in a room temperature (kept in the dark), fluorescence was measured (Excitation 380 nm, Emission 460 nm). A fluorescence-concentration curve of free AMC was obtained using AMC solution in the assay buffer with appropriate concentration. Plasma DPP-IV activities, with or without the test compounds, were expressed as the amount of product per minute per mL. The potency of the test compounds as DPP-IV inhibitor was expressed as IC50.

IC50 [nM] | SMILES
4.7 | N#C[C@@H]1C[C@H](F)CN1C(=O)[C@H]1N[C@@H]2C[C@H]1C[C@H]2O [Example 45-3, (2S,4S)-4-Fluoro-1-{[(1R,3S,4S,6R)-6-hydroxy-2-azabicyclo[2.2.1]hept-3-yl]carbonyl}-2-pyrrolidinecarbonitrile hydrochloride]
8.5 | N#C[C@@H]1CCCN1C(=O)[C@H]1N[C@H]2CC[C@@H]1[C@H](O)C2 [Example 2-8, (2S)-1-{[(1S,3S,4S,5R)-5-hydroxy-2-azabicyclo[2.2.2]oct-3-yl]carbonyl}-2-pyrrolidinecarbonitrile hydrochloride]
13 | CC1(NCC(=O)N2C[C@@H](F)C[C@H]2C#N)CCN(c2cnccn2)CC1 [Example 10-8, (2S,4S)-4-Fluoro-1-({[4-methyl-1-(2-pyrazinyl)-4-piperidinyl]amino}acetyl)-2-pyrrolidinecarbonitrile]
8.7 | N#C[C@@H]1CCCN1C(=O)[C@H]1N[C@@H]2C[C@H]1C[C@H]2O [Example 5-8, (2S)-1-{[(1R,3S,4S,6R)-6-hydroxy-2-azabicyclo[2.2.1]hept-3-yl]carbonyl}-2-pyrrolidinecarbonitrile hydrochloride]
15 | CC1(NCC(=O)N2C[C@@H](F)C[C@H]2C#N)CCOCC1 [Example 7-12, (2S,4S)-4-Fluoro-1-{[(4-methyltetrahydro-2H-pyran-4-yl)amino]acetyl}-2-pyrrolidinecarbonitrile]
4.5 | N#C[C@@H]1CCCN1C(=O)[C@H]1N[C@@H]2C[C@H]1C[C@H]2OCCO [Example 25-3, (2S)-1-{[(1R,3S,4S,6R)-6-(2-hydroxyethoxy)-2-azabicyclo[2.2.1]hept-3-yl]carbonyl}-2-pyrrolidinecarbonitrile hydrochloride]
